Test results as given in patent US9840494B2, “Quinazoline derivative” (Tianjin Hemay Oncology Pharmaceutical Co., Ltd., priority 2013, dated 2017).
Marks after values point to notes of the source that are not given here.

Tests used:
[1] = Bioavailability assay, Experiment III (free base); format: in vivo; conditions: Wistar rats
Procedure: Experiment III. Bioavailability Assay for N-[4-(3-chloro-4-fluorophenylamino)-7-(2-methoxyethoxy)quinazolin-6-yl]-2-[1-(2-methoxyethyl)piperidin-4-ylidene]acetamide
8 Wistar rats (male, weighing 160-190 g) were purchased from Laboratory Animal Center, Chinese PLA Academy of Military Medical Sciences. License No.: SCXK (Army) 2012-0004; Certificate No.: 0037074.
1) the compound was precisely weighed in a 10 ml glass tube;
2) The volume of DMSO was 2% of the total volume and DMSO was pipetted. The tip of the pipette was slowly rotated with being pressed against the inner wall of the centrifuge tube, and DMSO was pipetted in several times to dissolve the compound adsorbed on the wall of the centrifuge tube. After all the compound was transferred to the bottom portion of the centrifuge tube, the compound was dissolved by vortex and then placed in a water bath at 80° C.;
3) polyoxylethylene 35-castor oil of which the volume was 6% of the total volume was added and vortex;
4) sodium chloride solution for injection (0.9%) of which the volume was 92% of the total volume was added and vortexed to give a clear solution which will be used within 60 min
8 rats were fasted and ad libitum accessed to water for 12 h before administration. They were randomly divided into two groups, i.e. four rats per group, and were administered with the drug according to the administration scheme. Blood (about 0.5 ml) was drawn from the orbital venous plexus before dosing and at 5 min, 0.5 h, 1 h, 2 h, 3 h, 4 h, 5 h, 6 h and 8 h after dosing, and put into a heparinized centrifuge tube and centrifuged at 8000 r/min for 10 min 100 μl of the plasma was recovered, and 200 μl of 0.2% acetic acid in methanol (containing an internal standard (irbesartan, 20 ng/ml)) was added thereto to precipitate protein, vortexed for 2 min and centrifuged at 13000 r/min for 10 min The supernatant was obtained, and 20 μl of the supernatant was injected for detection.
Chromatographic column: phenomenex Synergi Polar-RP (150×4.6 mm, 2.5 μm)
Flow rate: 1 ml/min; column temperature: 40° C.
Mobile phase: A phase: 5 mM aqueous solution of ammonium formate; B phase: methanol, and the gradient was as follows: […]
API3000 LC-MS/MS; ESI source; MRM positive ion scan mode; and the parameters were as follows:
The main pharmacokinetic parameters and oral bioavailability results were calculated by using DAS2.0 (statistical moment).
Method for the calculation of bioavailability: F=(AUCig×Div)/(AUCiv×Dig)×100%
wherein D is dose; AUC: the area under the plasma drug concentration-time curve; ig represents intragastric administration; and iv represents intravenous injection administration.

[2] = tested on: FaDu human head and neck cancer xenograft; experiment: FaDu human head and neck cancer xenograft model; format: in vivo, nude mice; conditions: for Tumor Weight (x ± S.D.) / Tumor Inhibitor Rate / Relative Tumor Volume (x ± S.D.) / T/C / Tumor Volume (x ± S.D.): FaDu xenograft; for Tumor Inhibitor Rate: by tumor weight; for Relative Tumor Volume (x ± S.D.) / T/C / Tumor Volume (x ± S.D.): end of the assay
Procedure: Tumor cells were cultured in an incubator at 37° C. with 5% CO2 using MEM medium containing 10% inactivated fetal calf serum, 100 U/ml penicillin and 100 μg/ml streptomycin. The tumor cells in logarithmic growth phase were collected, adjusted to an appropriate density and injected subcutaneously into nude mice (0.2 ml per mouse). An xenograft model was established after tumor was formed in the nude mice and passaged in vivo for more than three generations.
The above-mentioned tumor-bearing mice were sacrificed by cervical dislocation. The tumor was taken out and cut into small tumor pieces (about 2 mm×2 mm×2 mm) under sterile conditions. The small tumor pieces were inoculated subcutaneously into nude mice on the right shoulder blade with a trocar. […] The animals in each group were subjected to intragastric administration daily for 14 consecutive days. The day of grouping is assigned as day 0.
Tumor volume is calculated as: volume=0.5×long diameter×short diameter^2. The relative tumor volume (RTV) was calculated based on the measurements as: RTV=Vt/V0, wherein V0 is the tumor volume measured when the animals were grouped to be administrated (i.e., d0), and Vt is the tumor volume when each measurement was taken. Relative tumor proliferation rate T/C was calculated based on relative tumor volume, in which T is the mean value of the relative tumor volume of the treatment group, and C is the mean value of the relative tumor volume of the solvent control group. T/C was calculated as follows: T/C=TRTV/CRTV×100% (TRTV: RTV of the treatment group; CRTV: RTV of the solvent control group) Inhibition rate (%)=(mean tumor weight of the solvent control group−mean tumor weight of the treatment group)/mean tumor weight of the solvent control group×100%. Percentage of body weight change=Wn/W0×100% (Wn: mean body weight of experimental animals in each group at day n, W0: mean body weight of experimental animals in each group at day 0).
One-Way ANOVA test was conducted in SPSS13.0, performing statistical analysis between groups.

[3] = 20 mg/kg intragastric gavage, preformulation
[4] = 20 mg/kg tail intravenous injection, preformulation
[5] = male, rat, plasma, po, 20 mg/kg intragastric gavage, preformulation
[6] = male, rat, plasma, 20 mg/kg tail intravenous injection, preformulation
[7] = FaDu xenograft nude mice, 20, 40 and 80 mg/kg intragastric daily for 14 days
[8] = 20 mg/kg intragastric daily for 14 days
[9] = 40 mg/kg intragastric daily for 14 days
[10] = 80 mg/kg intragastric daily for 14 days

In the case of `COCCOc1cc2ncnc(Nc3ccc(F)c(Cl)c3)c2cc1NC(=O)C=C1CCN(CCOC)CC1` [Compound 1, N-[4-(3-chloro-4-fluorophenylamino)-7-(2-methoxyethoxy)quinazolin-6-yl]-2-[1-(2-methoxyethyl)piperidin-4-ylidene]acetamide], the CLz/F [1, 3] is reported as 103 mL/min/kg, the t½z [1, 3] is reported as 4.59 h and the CLz [1, 4] is reported as 24.7 mL/min/kg. It also gave a t½z [1, 4] of 4.39 h, a bioavailability ([1]; male, rat, plasma, oral, 20 mg/kg ig vs 20 mg/kg iv) of 23.9% and an AUC(0-inf) [1, 5] of 3320 ng·h/mL. It also gave an AUC(0-t) [1, 5] of 2190 ng·h/mL, a Cmax [1, 5] of 416 ng/mL and a Tmax [1, 5] of 2.5 h. The Vd/F ([1]; male, rat, plasma, po, 20 mg/kg intragastric gavage, preformulation, read-out: Vz/F) was 39.2 L/kg, the AUC(0-inf) [1, 6] was 13900 ng·h/mL and the AUC(0-t) [1, 6] was 11800 ng·h/mL. It also gave a Cmax [1, 6] of 13200 ng/mL, a Tmax [1, 6] of 0.083 h and a Vd ([1]; male, rat, plasma, 20 mg/kg tail intravenous injection, preformulation, read-out: Vz) of 9.55 L/kg.
With `COCCOc1cc2ncnc(Nc3ccc(F)c(Cl)c3)c2cc1NC(=O)C=C1CCN(CCOC)CC1.CS(=O)(=O)O` [Compound 3, N-[4-(3-chloro-4-fluorophenylamino)-7-(2-methoxyethoxy)quinazolin-6-yl]-2-[1-(2-methoxyethyl)piperidin-4-ylidene]acetamide dimethylsulfonate] the “Body weights of the experimental animals” value [2, 7] was “not significantly reduced”, the “abnormality in the experimental animals” value [2, 7] was “no significant abnormality was observed” and the “Tumor Weight (x ± S.D.)” value [2, 8] was 0.684 ± 0.192 g. The “Tumor Inhibitor Rate” value [2, 8] was 37.5%, the “Relative Tumor Volume (x ± S.D.)” value [2, 8] was 6.1 ± 1.3 and the T/C [2, 8] was 61.4%. For the same molecule, the “Tumor Volume (x ± S.D.)” value [2, 8] was 703.3 ± 144.2** mm^3, the “Tumor Weight (x ± S.D.)” value [2, 9] was 0.522 ± 0.427 g and the “Tumor Inhibitor Rate” value [2, 9] was 52.4%. The “Relative Tumor Volume (x ± S.D.)” value [2, 9] was 5.5 ± 1.9, the T/C [2, 9] was 54.7% and the “Tumor Volume (x ± S.D.)” value [2, 9] was 602.9 ± 204.4*** mm^3. The “Tumor Weight (x ± S.D.)” value [2, 10] was 0.260 ± 0.128 g, the “Tumor Inhibitor Rate” value [2, 10] was 76.2% and the “Relative Tumor Volume (x ± S.D.)” value [2, 10] was 3.2 ± 1.6. For the same molecule, the T/C [2, 10] was 31.6% and the “Tumor Volume (x ± S.D.)” value [2, 10] was 352.3 ± 157.0*** mm^3.
